Experimental data: patent publication US8415300B2, “Sustained release of microcrystalline peptide suspensions” (Medical Research Council Technology, priority 2001, dated 2013)
Where a name gives a salt, the structure may show the parent alone. Blank lines part the entries; values can stand above or below the molecule they belong to. Starred links: 1 amine or outer side, 2 acyl side, 3 side chain; linkers in the order of their positions; H or OH if unused. Positions of bridges follow the written chain, without caps; N, C: chain ends. Non-standard residues stand in square brackets, D forms with d. Residues, ends and D or L forms follow the SMILES beside them. Groups on a side chain read outwards from the residue. No end group written: not given here. *: point of attachment. dTrp(2-Me) = Cc1[nH]c2ccccc2c1C[C@@H](N)C(=O)O; Trp(2-Me) = Cc1[nH]c2ccccc2c1C[C@H](N)C(=O)O; dPhe(4-Cl) = N[C@H](Cc1ccc(Cl)cc1)C(=O)O; d2Nal = N[C@H](Cc1ccc2ccccc2c1)C(=O)O; d(hCit) = NC(=O)NCCCC[C@@H](N)C(=O)O; Lys(iPr) = CC(C)NCCCC[C@H](N)C(=O)O; Ethylenediamine = C(CN[*:2])N[*:1]; Hyp = O=C(O)[C@@H]1C[C@@H](O)CN1; dCit = NC(=O)NCCC[C@@H](N)C(=O)O; d3Pal = N[C@H](Cc1cccnc1)C(=O)O; Phg = N[C@H](C(=O)O)c1ccccc1; CO = O=C([*:1])[*:2]; Bn = c1ccc(C*)cc1

Experiments:
[1] = Physical form (gel or flowing milky microcrystalline suspension) of the peptide salt mixed with aqueous medium or counter-ion acid; assay type: physicochemical
Description: Such behavior is not elicited by other salts such as the acetate, which result in the expected, but unwanted, formation of gels with poor bioavailability in vivo.
(§1) 200 μL of 5% mannitol were added to approximately 15 mg of the LHRH antagonist Teverelix trifluoroacetate. […] The suspension is made of microcrystals of about 10 μm length. Microcrystals may clump together to form urchin like structures. The suspension was injected in rats (1 mg) sub-cutaneously and provided the pharmacodynamic effect of testosterone suppression for more than 45 days (FIG. 1).
200 μL of water were added to approximately 15 mg of the LHRH antagonist Teverelix trifluoroacetate.
200 μL of water were added to approximately 15 mg of the LHRH antagonist Teverelix acetate.
In another study, 100 μL of TFA of various concentrations were added to 7.5 mg of the LHRH antagonist Teverelix acetate, with the TFA/Teverelix molar ratio ranging from 1 to 3.
200 μL of 150 mM TFA were added to amounts of the LHRH antagonist Teverelix acetate ranging from 5 to 30 mg (concentration ranging from 25 to 150 mg/mL).
The suspension was freeze-dried overnight.
(§2) The suspension was freeze-dried overnight. […] These suspensions were stable for at least 3 days at room temperature.
The suspension is made of microcrystals of about […] length. Microcrystals may assemble together to form urchin like structures. The suspension was freeze-dried overnight. […]

[2] = Pharmacokinetic analysis: sustained release of the peptide after injection of the suspension; assay type: in vivo, rats
Description: FIG. 2 is a graph which illustrates the sustained release of the peptide Teverelix for several weeks in rats injected with the suspension of Teverelix trifluoroacetate according to the invention.
as §1

[3] = Stability of reconstituted suspensions at room temperature; assay type: physicochemical; details: reconstituted with water and 0.2 M acetate buffer pH 4.0
Text: as §2

[4] = 100 μL of 150 mM trifluoroacetic acid solution added to 7.5 mg

Molecule: [dF]CY[dW]KVC[Trp(2-Me)]-NH2 (disulfide 2-7)
physical form after mixing [1, 4]: Free flowing suspensions

Molecule: NCCCC[C@@H]1NC(=O)[C@@H](Cc2c[nH]c3ccccc23)NC(=O)[C@H](c2ccccc2)NC(=O)[C@@H]2C[C@@H](OC(=O)NCCN)CN2C(=O)[C@H](Cc2ccccc2)NC(=O)[C@H](Cc2ccc(OCc3ccccc3)cc2)NC1=O [SOM 230, ETD-carboxy-c[Hyp-Phg-D-Trp-Lys-Tyr(Bzl)-Phe], reference compound] (cyclo([Hyp]([CO-Ethylenediamine])[Phg][dW]KY(Bn)F))
physical form after mixing ([1]; 100 μL of 5% mannitol-water solution added to approximately 5 mg): milky free flowing suspension

Molecule: [dTrp(2-Me)]CF[dW]KTC[Trp(2-Me)]-NH2 (disulfide 2-7)
physical form after mixing [1, 4]: Free flowing suspensions

Molecule: CC(=O)N[C@H](Cc1ccc2ccccc2c1)C(=O)N[C@H](Cc1ccc(Cl)cc1)C(=O)N[C@H](Cc1cccnc1)C(=O)N[C@@H](CO)C(=O)N[C@@H](Cc1ccc(O)cc1)C(=O)N[C@H](CCCNC(N)=O)C(=O)N[C@@H](CC(C)C)C(=O)N[C@@H](CCCNC(=N)N)C(=O)N1CCC[C@H]1C(=O)N[C@H](C)C(N)=O [Cetrorelix acetate, reference compound] (Ac-[d2Nal][dPhe(4-Cl)][d3Pal]SY[dCit]LRP[dA]-NH2)
physical form after mixing ([1]; 100 μL of 200 mM trifluoroacetic acid solution added to 2.5 mg): milky free flowing suspension

Molecule: [dF]CY[dW]KVCW-NH2 (disulfide 2-7)
physical form after mixing [1, 4]: Free flowing suspensions

Molecule: D-Nal-c[Cys-Tyr-D-Trp-Lys-Val-Cys]-Trp(2Me)-NH2
physical form after mixing [1, 4]: Free flowing suspensions

Second part, the molecule after the results:

physical form after mixing ([1]; 100 μL of 150 mM benzenesulfonic acid added to 7.5 mg): free flowing suspension
Molecule: Ac-D-Nal-D-pClPhe-D-Pal-Ser-Tyr-D-Hci-Leu-Lys(iPr)-Pro-D-Ala-NH2 [Teverelix hydrochloride]

sustained release of the peptide, duration ([2]; rats, 1 mg sub-cutaneously, suspension in 5% mannitol): several weeks
Molecule: CC(=O)N[C@H](Cc1ccc2ccccc2c1)C(=O)N[C@H](Cc1ccc(Cl)cc1)C(=O)N[C@H](Cc1cccnc1)C(=O)N[C@@H](CO)C(=O)N[C@@H](Cc1ccc(O)cc1)C(=O)N[C@H](CCCCNC(N)=O)C(=O)N[C@@H](CC(C)C)C(=O)N[C@@H](CCCCNC(C)C)C(=O)N1CCC[C@H]1C(=O)N[C@H](C)C(N)=O [Teverelix trifluoroacetate, Ac-D-Nal-D-pClPhe-D-Pal-Ser-Tyr-D-Hci-Leu-Lys(iPr)-Pro-D-Ala-NH2] (Ac-[d2Nal][dPhe(4-Cl)][d3Pal]SY[d(hCit)]L[Lys(iPr)]P[dA]-NH2)

physical form after mixing ([1]; 150 mM TFA (3 mols/mol): 200 μL to approximately 15 mg (Example 6) or 1 mL to approximately 75 mg (Example 7)): flowing milky suspension
physical form after freeze-drying and reconstitution ([1]; 150 mM TFA suspension freeze-dried overnight, 1 mL of water and 0.2 M acetate buffer pH 4.0 added): flowing milky suspension
physical form after freeze-drying and reconstitution ([1]; 150 mM TFA suspension freeze-dried overnight, 200 μL of water or 5% mannitol added): flowing milky suspension
physical form after addition of TFA to the gel ([1]; 20 μL of TFA (3 mols/mol) added to gel of approximately 15 mg in 200 μL water): fluid, flowing milky pearly suspension
physical form after mixing ([1]; 100 μL of 150 mM trifluoromethane sulfonic acid solution added to 7.5 mg): free flowing milky suspension
physical form after mixing ([1]; 100 μL of 250 mM H2SO4 added to 7.5 mg (5 mols/mol), after several hours): flowing milky suspension
TFA/Teverelix molar ratio at which a flowing milky suspension was obtained ([1]; 100 μL of TFA of various concentrations added to 7.5 mg, molar ratio ranging from 1 to 3, gels at other ratios): 1.6
physical form after mixing ([1]; 200 μL of 75 mM TFA with approximately 15 mg (1.5 mol/mol)): transparent gel
physical form after mixing ([1]; 200 μL of 100 mM TFA added to approximately 15 mg (2 mols/mol)): flowing milky suspension
concentration at which a flowing milky suspension was obtained ([1]; 200 μL of 150 mM TFA added to 5 to 30 mg (25 to 150 mg/mL)): up to 100 mg/mL
physical form after freeze-drying and reconstitution ([1]; H2SO4 suspension freeze-dried overnight, 100 μl of water or 5% mannitol added): flowing milky suspension
physical form after mixing ([1]; approximately 15 mg in 200 μL of water, vortex one minute): transparent gel
microcrystal length ([1]; suspension from 100 μL of 250 mM H2SO4 and 7.5 mg): about 100 μm
stability of the reconstituted suspensions [3]: at least 3 days
Molecule: Ac-D-Nal-D-pClPhe-D-Pal-Ser-Tyr-D-Hci-Leu-Lys(iPr)-Pro-D-Ala-NH2 [Teverelix acetate]

release of the active principle, duration ([2]; highly concentrated aqueous suspension of TFA or sulfate salt injected parenterally, general statement (FIGS. 1 and 2)): several weeks
physical form of highly concentrated aqueous suspension ([1]; as trifluoroacetate (TFA) or sulfate salt, general statement): microcrystalline milky suspension
Molecule: Ac-D-Nal-D-pClPhe-D-Pal-Ser-Tyr-D-Hci-Leu-Lys(iPr)-Pro-D-Ala-NH2 [Teverelix]
